Columns and labels:
[1] = system: T1, Receptor-type tyrosine-protein kinase FLT3 (Homo sapiens), P36888 [R834Q]; experiment: Selectivity interaction (KinomeScan (DiscoverX)) EUB0001079a FLT3; conditions: at 1 µM
T1 sequence (whole entry): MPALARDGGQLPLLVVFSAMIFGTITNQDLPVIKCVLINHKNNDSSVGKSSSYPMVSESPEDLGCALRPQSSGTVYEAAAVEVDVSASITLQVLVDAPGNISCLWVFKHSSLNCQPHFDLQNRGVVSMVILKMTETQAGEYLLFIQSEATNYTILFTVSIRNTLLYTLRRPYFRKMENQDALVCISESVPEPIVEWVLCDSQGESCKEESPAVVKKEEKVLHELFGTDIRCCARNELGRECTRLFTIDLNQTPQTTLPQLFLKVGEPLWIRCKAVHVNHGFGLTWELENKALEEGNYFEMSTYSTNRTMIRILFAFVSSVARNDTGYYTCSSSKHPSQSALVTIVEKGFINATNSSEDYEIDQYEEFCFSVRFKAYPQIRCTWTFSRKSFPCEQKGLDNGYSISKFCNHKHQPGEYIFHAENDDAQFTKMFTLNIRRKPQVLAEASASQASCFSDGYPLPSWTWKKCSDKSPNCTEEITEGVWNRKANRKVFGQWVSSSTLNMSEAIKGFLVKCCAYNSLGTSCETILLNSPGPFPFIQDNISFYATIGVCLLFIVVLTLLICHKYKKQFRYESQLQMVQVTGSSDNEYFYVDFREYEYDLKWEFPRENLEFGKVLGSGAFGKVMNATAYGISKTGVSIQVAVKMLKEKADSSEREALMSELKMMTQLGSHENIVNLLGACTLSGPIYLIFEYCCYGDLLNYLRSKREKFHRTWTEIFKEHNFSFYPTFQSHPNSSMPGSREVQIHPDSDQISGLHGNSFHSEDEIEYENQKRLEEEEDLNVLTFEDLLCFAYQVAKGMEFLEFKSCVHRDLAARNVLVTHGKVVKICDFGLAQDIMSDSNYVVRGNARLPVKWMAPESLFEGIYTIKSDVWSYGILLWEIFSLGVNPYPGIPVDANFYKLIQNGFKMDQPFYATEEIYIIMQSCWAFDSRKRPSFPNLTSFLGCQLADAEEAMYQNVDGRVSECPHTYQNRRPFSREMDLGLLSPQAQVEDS

[2] = biological target: Tyrosine-protein kinase Fyn (Homo sapiens) (UniProt P06241); experiment: Selectivity interaction (Kinase panel (KiNativ target engagement assay in Jurkat cells)) EUB0001635a FYN; type: cell-based; conditions: Selectivity number of off-targets 0.0, Selectivity number of targets 233.0, Source Knowledge https://www.sciencedirect.com/science/article/pii/S2451945619300674?via%3Dihub, at 1 µM
[3] = biological target: 5-hydroxytryptamine receptor 2B (Homo sapiens, UniProt P41595); experiment: Selectivity interaction (GPCR panel (PDSP screen)) EUB0000311b HTR2B; conditions: at 10 µM
[4] = biological target: Protein-tyrosine kinase 2-beta (Homo sapiens) (UniProt Q14289); experiment: Selectivity interaction (ActivX KiNativ screen (kinase selectivity in THP-1 cell lysates)) EUB0000639a PTK2B; type: subcellular; conditions: lysate, at 0.01 µM
[5] = biological target: Tyrosine-protein kinase receptor UFO (Homo sapiens) (UniProt P30530); experiment: Selectivity interaction (Kinase panel (Invitrogen)) EUB0000639a AXL; conditions: at 200 nM
[6] = biological target: T2, Serine/threonine-protein kinase Nek1 (Homo sapiens) (UniProt Q96PY6); conditions: at 10 µM
T2 sequence (whole entry): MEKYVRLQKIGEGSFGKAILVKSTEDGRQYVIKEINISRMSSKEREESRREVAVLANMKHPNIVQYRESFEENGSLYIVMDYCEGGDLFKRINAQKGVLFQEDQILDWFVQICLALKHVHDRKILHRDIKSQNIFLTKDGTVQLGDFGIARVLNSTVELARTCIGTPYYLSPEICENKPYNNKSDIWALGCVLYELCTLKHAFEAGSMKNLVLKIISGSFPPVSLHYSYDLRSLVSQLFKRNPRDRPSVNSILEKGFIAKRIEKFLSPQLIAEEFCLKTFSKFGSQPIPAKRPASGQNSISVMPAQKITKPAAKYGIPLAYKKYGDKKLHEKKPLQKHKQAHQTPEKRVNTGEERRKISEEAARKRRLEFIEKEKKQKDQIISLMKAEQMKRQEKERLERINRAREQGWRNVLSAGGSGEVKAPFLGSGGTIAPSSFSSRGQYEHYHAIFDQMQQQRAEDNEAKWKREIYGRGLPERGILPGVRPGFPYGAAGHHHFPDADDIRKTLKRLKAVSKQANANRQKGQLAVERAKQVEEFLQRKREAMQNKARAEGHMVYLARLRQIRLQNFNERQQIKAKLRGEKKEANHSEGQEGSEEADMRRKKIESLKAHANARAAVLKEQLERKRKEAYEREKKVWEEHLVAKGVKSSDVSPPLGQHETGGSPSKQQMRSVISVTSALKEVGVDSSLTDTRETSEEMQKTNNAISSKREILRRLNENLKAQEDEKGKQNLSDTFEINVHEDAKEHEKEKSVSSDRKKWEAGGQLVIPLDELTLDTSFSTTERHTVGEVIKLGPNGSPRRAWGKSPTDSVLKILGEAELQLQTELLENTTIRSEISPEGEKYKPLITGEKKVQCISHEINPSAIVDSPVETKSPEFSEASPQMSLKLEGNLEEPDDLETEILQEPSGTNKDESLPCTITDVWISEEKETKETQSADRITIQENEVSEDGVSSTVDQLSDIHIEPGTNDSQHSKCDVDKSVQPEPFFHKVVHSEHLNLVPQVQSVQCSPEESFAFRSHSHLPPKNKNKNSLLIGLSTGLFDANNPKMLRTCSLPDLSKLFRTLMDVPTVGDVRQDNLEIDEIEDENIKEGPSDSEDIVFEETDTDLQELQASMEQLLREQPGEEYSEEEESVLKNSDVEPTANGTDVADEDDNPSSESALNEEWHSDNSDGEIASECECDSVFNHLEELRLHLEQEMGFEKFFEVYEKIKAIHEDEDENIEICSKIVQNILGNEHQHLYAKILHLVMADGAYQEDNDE

[7] = biological target: Platelet-derived growth factor receptor beta (Homo sapiens, UniProt P09619); experiment: Selectivity interaction (Kinase panel (enzymatic assay)) EUB0000595a PDGFRB
[8] = biological target: Ribosomal protein S6 kinase alpha-5 (Homo sapiens) (UniProt O75582); experiment: Selectivity interaction (KinomeScan (DiscoverX)) EUB0000045b RPS6KA5; conditions: at 1 µM
[9] = biological target: Cyclin-dependent kinase 3 (Homo sapiens) (UniProt Q00526); experiment: Selectivity interaction (KinomeScan (DiscoverX)) EUB0000045b CDK3
[10] = biological target: Histone-lysine N-methyltransferase PRDM9 (Homo sapiens) (UniProt Q9NQV7); conditions: at 10 µM
[11] = biological target: Tyrosine-protein kinase Lyn (Homo sapiens, UniProt P07948); experiment: Selectivity interaction (ActivX KiNativ screen (ex vivo kinase selectivity in human PBMCs)) EUB0001619a LYN; type: cell-based; conditions: PBMC, at 1 µM
Chain of Tyrosine-protein kinase Lyn (P07948 2-512 limits assumed): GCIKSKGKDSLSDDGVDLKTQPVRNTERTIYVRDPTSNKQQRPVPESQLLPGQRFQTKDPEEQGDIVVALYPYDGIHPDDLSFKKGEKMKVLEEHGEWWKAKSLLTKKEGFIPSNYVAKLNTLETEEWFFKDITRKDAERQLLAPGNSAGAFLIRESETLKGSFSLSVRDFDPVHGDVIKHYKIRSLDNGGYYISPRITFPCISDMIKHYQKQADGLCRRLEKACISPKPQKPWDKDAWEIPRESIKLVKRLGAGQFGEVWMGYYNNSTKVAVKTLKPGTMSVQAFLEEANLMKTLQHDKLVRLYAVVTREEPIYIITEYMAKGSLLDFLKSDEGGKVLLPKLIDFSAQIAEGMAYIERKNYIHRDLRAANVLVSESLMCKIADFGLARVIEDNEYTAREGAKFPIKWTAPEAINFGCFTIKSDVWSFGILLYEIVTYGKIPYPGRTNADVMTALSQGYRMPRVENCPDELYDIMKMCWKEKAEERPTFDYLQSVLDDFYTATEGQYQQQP

Chain of Cyclin-dependent kinase 3 (Homo sapiens) (Q00526 whole entry, looked up): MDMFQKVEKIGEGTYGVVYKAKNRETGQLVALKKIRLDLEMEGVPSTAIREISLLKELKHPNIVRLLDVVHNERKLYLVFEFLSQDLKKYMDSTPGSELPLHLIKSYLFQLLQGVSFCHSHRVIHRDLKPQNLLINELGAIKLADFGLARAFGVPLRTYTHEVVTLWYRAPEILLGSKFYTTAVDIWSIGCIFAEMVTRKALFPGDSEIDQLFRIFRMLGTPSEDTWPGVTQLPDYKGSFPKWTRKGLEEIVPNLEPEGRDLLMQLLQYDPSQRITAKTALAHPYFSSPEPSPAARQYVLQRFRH
Chain of 5-hydroxytryptamine receptor 2B (P41595 whole entry): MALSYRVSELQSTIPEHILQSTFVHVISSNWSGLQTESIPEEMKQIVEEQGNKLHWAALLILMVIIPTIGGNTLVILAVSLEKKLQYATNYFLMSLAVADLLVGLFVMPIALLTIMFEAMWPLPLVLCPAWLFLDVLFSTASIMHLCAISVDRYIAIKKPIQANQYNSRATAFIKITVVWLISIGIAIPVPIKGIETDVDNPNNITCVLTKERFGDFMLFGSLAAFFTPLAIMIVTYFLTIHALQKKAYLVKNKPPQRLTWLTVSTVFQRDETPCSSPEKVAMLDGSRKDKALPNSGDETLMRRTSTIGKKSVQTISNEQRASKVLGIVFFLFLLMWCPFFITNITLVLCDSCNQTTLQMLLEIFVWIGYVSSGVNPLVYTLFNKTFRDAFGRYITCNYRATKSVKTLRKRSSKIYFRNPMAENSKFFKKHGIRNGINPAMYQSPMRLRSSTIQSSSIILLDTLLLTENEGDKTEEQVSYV
Chain of Protein-tyrosine kinase 2-beta (Homo sapiens) (Q14289 whole entry, looked up): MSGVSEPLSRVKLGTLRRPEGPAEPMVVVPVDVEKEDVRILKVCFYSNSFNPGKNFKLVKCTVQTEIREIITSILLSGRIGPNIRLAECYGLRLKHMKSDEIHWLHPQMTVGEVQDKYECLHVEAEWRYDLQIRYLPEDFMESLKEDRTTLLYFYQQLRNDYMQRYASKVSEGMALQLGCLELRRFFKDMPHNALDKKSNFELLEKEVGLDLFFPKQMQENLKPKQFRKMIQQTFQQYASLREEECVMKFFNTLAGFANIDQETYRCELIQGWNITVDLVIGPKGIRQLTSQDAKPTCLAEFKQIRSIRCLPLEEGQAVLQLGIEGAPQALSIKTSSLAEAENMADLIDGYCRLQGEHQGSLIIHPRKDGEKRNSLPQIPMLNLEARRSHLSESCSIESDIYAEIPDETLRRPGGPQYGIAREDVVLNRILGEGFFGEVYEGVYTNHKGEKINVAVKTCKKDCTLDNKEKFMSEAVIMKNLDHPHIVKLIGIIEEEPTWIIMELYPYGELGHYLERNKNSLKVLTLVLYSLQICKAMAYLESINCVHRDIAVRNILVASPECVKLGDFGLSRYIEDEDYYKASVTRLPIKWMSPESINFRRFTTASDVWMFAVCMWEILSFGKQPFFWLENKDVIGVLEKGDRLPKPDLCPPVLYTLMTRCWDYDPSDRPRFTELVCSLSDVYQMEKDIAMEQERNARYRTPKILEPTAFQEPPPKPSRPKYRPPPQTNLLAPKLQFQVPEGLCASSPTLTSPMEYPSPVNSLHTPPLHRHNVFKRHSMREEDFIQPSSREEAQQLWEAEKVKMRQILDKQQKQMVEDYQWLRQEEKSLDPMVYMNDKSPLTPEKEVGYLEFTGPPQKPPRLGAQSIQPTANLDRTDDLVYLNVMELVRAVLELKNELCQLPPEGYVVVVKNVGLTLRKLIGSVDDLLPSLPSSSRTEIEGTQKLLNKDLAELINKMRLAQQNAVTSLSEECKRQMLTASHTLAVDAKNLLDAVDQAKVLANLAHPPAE
Chain of Tyrosine-protein kinase receptor UFO (Homo sapiens) (P30530 whole entry): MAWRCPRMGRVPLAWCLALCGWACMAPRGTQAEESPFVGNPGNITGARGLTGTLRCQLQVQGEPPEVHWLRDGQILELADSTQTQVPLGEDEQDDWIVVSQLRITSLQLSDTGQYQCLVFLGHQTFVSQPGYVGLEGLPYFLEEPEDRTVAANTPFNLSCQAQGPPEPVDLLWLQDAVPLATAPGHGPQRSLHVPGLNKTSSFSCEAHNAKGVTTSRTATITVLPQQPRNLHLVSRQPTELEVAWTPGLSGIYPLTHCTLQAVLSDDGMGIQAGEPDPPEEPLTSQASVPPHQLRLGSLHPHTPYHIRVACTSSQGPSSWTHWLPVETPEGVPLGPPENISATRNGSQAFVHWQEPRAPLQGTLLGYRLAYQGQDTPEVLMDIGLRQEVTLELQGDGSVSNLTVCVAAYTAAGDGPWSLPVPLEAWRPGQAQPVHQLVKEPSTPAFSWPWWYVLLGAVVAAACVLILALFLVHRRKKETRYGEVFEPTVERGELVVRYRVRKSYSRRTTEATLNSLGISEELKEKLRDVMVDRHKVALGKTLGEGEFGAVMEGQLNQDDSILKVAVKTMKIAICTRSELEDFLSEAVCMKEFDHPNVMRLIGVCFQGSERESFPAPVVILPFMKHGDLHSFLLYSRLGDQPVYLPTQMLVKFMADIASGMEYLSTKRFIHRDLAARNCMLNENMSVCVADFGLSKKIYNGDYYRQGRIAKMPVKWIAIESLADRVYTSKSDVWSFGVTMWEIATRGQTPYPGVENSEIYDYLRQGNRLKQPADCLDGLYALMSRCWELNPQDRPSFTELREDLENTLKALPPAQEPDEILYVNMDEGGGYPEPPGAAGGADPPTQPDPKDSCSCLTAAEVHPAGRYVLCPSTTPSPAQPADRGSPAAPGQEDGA
Chain of Tyrosine-protein kinase Fyn (Homo sapiens) (P06241 2-537 limits assumed): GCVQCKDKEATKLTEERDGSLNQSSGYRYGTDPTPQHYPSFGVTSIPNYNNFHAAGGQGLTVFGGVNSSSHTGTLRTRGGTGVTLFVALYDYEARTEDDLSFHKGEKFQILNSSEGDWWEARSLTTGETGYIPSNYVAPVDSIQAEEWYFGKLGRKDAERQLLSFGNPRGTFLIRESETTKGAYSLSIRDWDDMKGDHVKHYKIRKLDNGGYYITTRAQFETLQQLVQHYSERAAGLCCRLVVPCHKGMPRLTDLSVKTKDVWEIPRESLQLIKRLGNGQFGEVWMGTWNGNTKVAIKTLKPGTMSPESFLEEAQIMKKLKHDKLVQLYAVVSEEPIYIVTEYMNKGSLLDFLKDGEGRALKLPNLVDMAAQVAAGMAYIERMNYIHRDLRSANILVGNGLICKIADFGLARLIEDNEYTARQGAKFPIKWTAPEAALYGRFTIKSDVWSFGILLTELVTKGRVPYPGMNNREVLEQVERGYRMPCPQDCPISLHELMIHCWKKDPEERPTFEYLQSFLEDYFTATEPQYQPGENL
Chain of Histone-lysine N-methyltransferase PRDM9 (Homo sapiens) (Q9NQV7 whole entry): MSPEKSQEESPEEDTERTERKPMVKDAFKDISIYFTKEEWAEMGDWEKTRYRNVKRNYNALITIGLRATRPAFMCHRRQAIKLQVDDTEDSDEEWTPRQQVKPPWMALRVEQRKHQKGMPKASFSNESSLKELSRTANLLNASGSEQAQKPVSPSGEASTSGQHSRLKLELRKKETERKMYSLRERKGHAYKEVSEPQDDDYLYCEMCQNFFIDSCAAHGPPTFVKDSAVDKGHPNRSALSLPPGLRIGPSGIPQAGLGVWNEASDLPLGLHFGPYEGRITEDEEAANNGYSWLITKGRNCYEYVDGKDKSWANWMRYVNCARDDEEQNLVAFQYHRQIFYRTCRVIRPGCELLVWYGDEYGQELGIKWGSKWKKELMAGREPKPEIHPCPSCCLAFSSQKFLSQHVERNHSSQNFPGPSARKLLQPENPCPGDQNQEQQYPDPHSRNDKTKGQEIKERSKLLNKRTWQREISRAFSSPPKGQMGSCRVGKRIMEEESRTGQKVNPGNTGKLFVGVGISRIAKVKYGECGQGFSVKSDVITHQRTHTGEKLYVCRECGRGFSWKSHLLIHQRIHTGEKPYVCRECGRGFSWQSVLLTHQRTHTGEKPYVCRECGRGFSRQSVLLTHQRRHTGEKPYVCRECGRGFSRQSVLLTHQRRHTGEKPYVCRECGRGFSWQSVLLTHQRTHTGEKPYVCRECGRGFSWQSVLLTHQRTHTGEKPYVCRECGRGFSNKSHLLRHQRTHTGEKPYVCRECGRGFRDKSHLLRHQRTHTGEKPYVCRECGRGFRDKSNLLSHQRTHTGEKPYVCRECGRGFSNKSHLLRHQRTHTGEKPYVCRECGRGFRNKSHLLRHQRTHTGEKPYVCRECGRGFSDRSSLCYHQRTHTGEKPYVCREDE

SMILES: Nc1cnc(N2CCc3cc(S(=O)(=O)Nc4c(F)cc(Cl)cc4F)cc(N4CCCC4=O)c32)nc1 [TP-020n]
- % of control [1]: 77%

SMILES: C=CC(=O)Nc1ccc(C(=O)Nc2[nH]nc3c2CN(C(=O)N[C@H](CN(C)C)c2ccccc2)C3(C)C)cc1
- % of engagement [2]: 6.2%

SMILES: CCc1ccccc1C(=O)Nc1n[nH]c2c(C)c(F)c(C3C(C#N)=C(C)N(C)C(C)=C3C#N)cc12 [BAY-3827]
- % of inhibition [3]: 32.5%

SMILES: CC[C@@H]1[C@H](F)C(=O)N[C@@H]1COc1nccc2cc(C(N)=O)c(OC)cc12 [ZIMLOVISERTIB]
- % of inhibition [4]: -0.9%
- % of inhibition [5]: 12.2%

SMILES: COCC(=O)NC/C=C/c1ccc2ncnc(Nc3ccc(Oc4ccc(C)nc4)c(C)c3)c2c1 [CP-724714]
- % of control [6]: 83%
- IC50 [7]: > 10 µM

SMILES: C=CC(=O)Nc1cc(-n2c(=O)ccc3cnc4ccc(-c5ccc(NS(C)(=O)=O)cc5)cc4c32)ccc1C
- % of control [8]: 95%
- % of control ([9]; at 1 µM): 100%
- % of control ([9]; at 10 µM): 100%

SMILES: CNCCN1CCC(c2cc(CN(C)C(=O)c3cccc(Oc4ccccc4)c3)ccn2)CC1
- % activity [10]: > 90%

SMILES: N#Cc1cccc(-c2c[nH]c3ncnc(N4CCOCC4)c23)c1
- % of inhibition [11]: 1%
